Data: US7799747B2, “Method of reducing surfactant damage using compositions comprising benefit agents of defined high polarity” (Conopco, Inc., priority 2005, dated 2010)

What was measured:
BSA = BSA (Bos taurus, UniProt P02769); assay: Micro-DSC for protein denaturation; conditions: denaturation enthalpy approaching zero, FIG. 5
[1] = target: BSA (Bovine Serum Albumin) (Bos taurus, UniProt P02769); assay: Conductivity test: surfactant binding to BSA protein; conditions: 10% SDS with 10% oil (1:1), 0.5% BSA in 0.02M acetate buffer pH~5.2, room temperature
Description: Conductance measurements were carried out at room temperature by use of a Thermo conductivity meter, model Orion 150+. Routinely, the titrations were performed by adding a controlled amount of 10% of stock surfactant solution under magnetic stirring into the 0.5% BSA (Bovine Serum Albumin) in 0.02M acetate buffer at pH˜5.2. Values of CMC (critical micellization concentration), CAC (critical aggregation concentration) and protein saturation point (PSP) were defined by the changing of the slope of the conductivity vs. surfactant concentration plots. The number of surfactants binding to each protein can be calculated by: {[PSP]−[CAC]}/{[protein]/Mwprotein}, where [protein] is the protein concentration.
In order to show the effect of benefit agent having different polarity on binding to protein molecule (a reflection of the harshness of surfactant; more surfactant binding to protein equal harsher and more damage expected), applicants tested surfactant binding of (1) surfactant alone and (2) of surfactant in combination with various oils/cosolvents (at 1:1 surfactant to oil ratio) to see level of (how many) surfactants binding per protein molecule (e.g., BSA) at saturation. The tests were done using conductivity test described in protocol and results are set forth below in Table 1.
Applicants conducted same test as in Examples 1 to 10, but used SLES/CAPB surfactant system instead of SDS.

pig skin = assay: HPLC test for surfactant deposition onto pig skin after wash; conditions: SDS measured in combination with the benefit agent

Chain of BSA (P02769 25-607): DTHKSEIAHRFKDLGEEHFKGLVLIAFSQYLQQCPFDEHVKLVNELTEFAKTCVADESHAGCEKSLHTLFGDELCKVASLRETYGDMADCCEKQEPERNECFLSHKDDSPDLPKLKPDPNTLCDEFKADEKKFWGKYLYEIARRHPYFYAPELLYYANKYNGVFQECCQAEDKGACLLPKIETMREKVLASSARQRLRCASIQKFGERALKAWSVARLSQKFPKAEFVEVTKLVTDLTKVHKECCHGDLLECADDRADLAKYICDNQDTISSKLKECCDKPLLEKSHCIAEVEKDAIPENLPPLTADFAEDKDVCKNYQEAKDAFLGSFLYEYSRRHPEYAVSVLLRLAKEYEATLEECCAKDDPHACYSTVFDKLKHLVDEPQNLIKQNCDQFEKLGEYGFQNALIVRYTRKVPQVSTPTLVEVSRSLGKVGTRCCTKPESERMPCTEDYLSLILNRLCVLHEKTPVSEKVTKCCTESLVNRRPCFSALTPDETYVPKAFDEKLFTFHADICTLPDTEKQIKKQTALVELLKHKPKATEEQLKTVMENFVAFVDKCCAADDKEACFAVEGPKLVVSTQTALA
Chain of BSA (Bovine Serum Albumin) (P02769 25-607): as above

Row | SMILES | ratio surfactant to protein at which BSA is fully denatured at room temperature (BSA) | Saturated binding: No. of surfactant per BSA at saturation [1] | SDS deposition versus SDS alone (FIG. 1) (pig skin)
1 | CCCCCCCCCCCCOS(=O)(=O)[O-].[Na+] [10% SDS, Sodium dodecyl sulfate] | about 1.2 | 220 | 
2 | CCCCCCCCCCCC [dodecane] |  |  | deposition was about the same or higher
